{"source": "patent US20070225213A1", "about": "“Nucleic acid carriers for delivery of therapeutic agents” (priority 2006, published 2007)", "key": {"MCF7 cells": {"test_system": "MCF7 cells", "assay": "Drug loading vs toxicity at fixed [drug], MTT viability assay (Example 4)", "assay_type": "cell-based, human", "conditions": "Drug only, without carrier; 0.058 mM MTN; 72 hours", "description": "FIG. 1. […] NAC-MTN or NAC-DOX were prepared at different weight:weight % of drug:nucleic acid and incubated in cells. For each sample and corresponding % loading, the total drug was held constant at 0.058 mM MTN or 0.1 mM DOX. After incubation in cells, cell viability was assayed via mitochondrial dehydrogenase activity against 3-[4,5-dimethylthiazol-2-yl]-2,5-diphenyl tetrazolium bromide (MTT) and reported as % toxicity relative to untreated cells.\nMitoxantrone (MTN, Sigma Aldrich) and Doxorubicin HCl (DOX) were diluted in HBSS to 1 mg/ml final. DNA, from degraded herring sperm DNA <40 bp (HSDNA, Sigma Aldrich), was prepared in water at 10 mg/ml. The drug was diluted in water or HBSS first, followed by addition of the DNA, in order to prevent precipitation. Precipitation of drug was especially a concern at 40% loading of MTN, which is the loading limit for HSDNA (degraded) and so the DNA is added slowly to the diluted MTN (the reverse addition leads to precipitation). All NAC-MTN formulation stocks were prepared at 0.15 mg/ml final MTN, and different concentration of DNA in order to give 15, 25, and 35.7% final drug loading w/w % of MTN/DNA in 0.5 ml final volume. All NAC-DOX formulations were prepared at 0.3 mg/ml final DOX, and either 5, 10, or 15% loaded drug weight/weight % of DOX/DNA in 0.5 ml final volume. […]"}, "COS7": {"test_system": "COS7", "assay": "Cell uptake by MTN fluorescence EX620/EM680 (Examples 10 and 13, EX051605)", "assay_type": "cell-based, green monkey", "conditions": "10% w/w loading in DNA", "description": "Materials: HSGDNA, MTN, ODNAS1116 (phosphorothioated, single stranded DNA, and Beta-cyclodextrin polymer (BCD-SBE, KKBIOMED Inc.) were previously prepared in water at 10 mg/ml, 1 mg/ml, 0.95 mg/ml, and 10 mg/ml respectively.\nProcedure: For NAC-MTN, combined 37 ul HSGDNA (herring genomic DNA, Promega Inc.), 1426 ul HBSS( Hank's buffered saline, Sigma-Aldrich), with 37 ul of MTN, followed by 1500 ul 2× DMEM media to give 3 ml final and 24 uM (24 micro-molar) MTN and 10% w/w drug loading of MTN. For NAC-MTN (AR1505) combined 62 ul of HSDNA (deg. herring sperm DNA, Sigma) with 2377 ul HBSS, 61.7 ul MTN, 2500 ul 2× media to give 5 ml final and 24 uM MTN and 10% w/w drug loading of MTN to HSDNA. […]\nPlate#1 Media was aspirated and cells treated with 100 ul of either NAC-MTN, CD-MTN, or MTN at 24 uM MTN final or 12.3 ug/ml MTN in all samples. Samples containing MTN were incubated 4 hours, removed, and fluorescence taken at EX620/EM680. […]\nSamples were incubated 4 hours, removed, and MTN fluorescence taken at EX620/EM680. […] Average MTN fluorescence was averaged from 6 wells. For each cell type, MTN fluorescence was highest in MTN treated cells, followed by CD-MTN, and lowest in NAC-MTN. […]\nPLATE#2: Dispensed 50 ul from source plate into plate #2 to give 150 ul final vol 4.1 ug/ml, 8 uMfinal per well, pre-read fluorescence w samples (bkgd) incubated 5 hr, removed, replaced w/ media, read fluor. […]"}}}
{"smiles": "O=C1c2c(O)ccc(O)c2C(=O)c2c(NCCNCCO)ccc(NCCNCCO)c21", "note": "[MTN, mitoxantrone]", "values": [{"measurement": "% Tox", "setting": "MCF7 cells", "value": 79, "unit": "%"}, {"measurement": "% reduction in fluorescence relative to MTN alone (MTN = 0%)", "setting": "COS7; Plate#1, 24 uM MTN, 4 hours", "value": 0, "unit": "%"}, {"measurement": "% reduction in fluorescence relative to MTN alone (MTN = 0%)", "setting": "COS7; Plate#2, 8 uM MTN", "value": 0, "unit": "%"}]}
